Assay results as given in patent publication US20150141448A1, “Topical Ophthalmological Pharmaceutical Composition containing Pazopanib” (BAYER HEALTHCARE LLC, priority 2012, published 2015).
Counter-ions that a name gives are not always drawn.

Test: Solubility in lipophilic vehicles
Type: physicochemical
Settings: lipophilic vehicles like liquid or light liquid paraffin

## Cc1ccc(Nc2nccc(N(C)c3ccc4c(C)n(C)nc4c3)n2)cc1S(N)(=O)=O [pazopanib hydrochloride, 5-[[4-[(2,3-Dimethyl-2H-indazol-6-yl)methylamino]-2-pyrimidinyl]amino]-2-methylbenzolsulfonamide]
  solubility in lipophilic vehicles: very low
